Data from PubChem BioAssay AID248 (DTP/NCI, 2004).
Inconclusive results and toxic doses are left out. Rule as the data show it: active = T/C of 150% or more; inactive = T/C below 125%.

System: L1210 leukemia ip in BDF1 mice, survival T/C
Assay: NCI In Vivo Anticancer Drug Screen. Data for tumor model L1210 Leukemia (intraperitoneal) in B6D2F1 (BDF1) mice
Settings: endpoint: mean survival time, higher = longer survival
How it was run: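 In this screen, tumor-bearing mice given compound are compared to those given vehicle, and their survival values are reported as a treated-to-control quotient.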

[1] = dose: 50.0 mg/kg/injection, schedule: Q01DX001 (ip), vehicle: carboxymethylcellulose (CMC)
[2] = dose: 100.0 mg/kg/injection, schedule: Q01DX001 (ip), vehicle: carboxymethylcellulose (CMC)
[3] = dose: 200.0 mg/kg/injection, schedule: Q01DX001 (ip), vehicle: carboxymethylcellulose (CMC)
[4] = dose: 100.0 mg/kg/injection, schedule: Q04DX003 (ip), vehicle: saline with Tween-80
[5] = dose: 200.0 mg/kg/injection, schedule: Q04DX003 (ip), vehicle: saline with Tween-80
[6] = dose: 400.0 mg/kg/injection, schedule: Q04DX003 (ip), vehicle: saline with Tween-80
[7] = dose: 100.0 mg/kg/injection, schedule: Q01DX009 (ip), vehicle: saline
[8] = dose: 200.0 mg/kg/injection, schedule: Q01DX009 (ip), vehicle: saline
[9] = dose: 400.0 mg/kg/injection, schedule: Q01DX009 (ip), vehicle: saline
[10] = dose: 100.0 mg/kg/injection, schedule: Q04DX002 (ip), vehicle: Klucel (hydroxypropylcellulose) (HPC)
[11] = dose: 200.0 mg/kg/injection, schedule: Q04DX002 (ip), vehicle: Klucel (hydroxypropylcellulose) (HPC)
[12] = dose: 400.0 mg/kg/injection, schedule: Q04DX002 (ip), vehicle: Klucel (hydroxypropylcellulose) (HPC)
[13] = dose: 100.0 mg/kg/injection, schedule: Q04DX003 (ip), vehicle: Klucel (hydroxypropylcellulose) (HPC)
[14] = dose: 200.0 mg/kg/injection, schedule: Q04DX003 (ip), vehicle: Klucel (hydroxypropylcellulose) (HPC)
[15] = dose: 400.0 mg/kg/injection, schedule: Q04DX003 (ip), vehicle: Klucel (hydroxypropylcellulose) (HPC)
[16] = dose: 100.0 mg/kg/injection, schedule: Q01DX009 (ip), vehicle: saline with Tween-80
[17] = dose: 200.0 mg/kg/injection, schedule: Q01DX009 (ip), vehicle: saline with Tween-80
[18] = dose: 100.0 mg/kg/injection, schedule: Q01DX001 (ip), vehicle: saline
[19] = dose: 200.0 mg/kg/injection, schedule: Q01DX001 (ip), vehicle: saline
[20] = dose: 400.0 mg/kg/injection, schedule: Q01DX001 (ip), vehicle: carboxymethylcellulose (CMC)
[21] = dose: 400.0 mg/kg/injection, schedule: Q01DX001 (ip), vehicle: saline
[22] = dose: 100.0 mg/kg/injection, schedule: Q01DX009 (ip), vehicle: Klucel (hydroxypropylcellulose) (HPC)

Measured: T/C

CC1CCCC2=[N+]1CCCC2 (stereo not given)
inactive: [1] 96 % of control | [2] 96 % of control | [3] 93 % of control

Cn1c2ccccc2c(=O)c2cc([N+](=O)[O-])ccc21
inactive: [4] 93 % of control | [5] 97 % of control | [6] 93 % of control

OC1CC2CCC1C21OCCO1 (stereo not given)
inactive: [7] 107 % of control | [8] 100 % of control | [9] 109 % of control

CCn1c(C)nc2cc(N=Cc3ccc(N(CCCl)CCCl)cc3)ccc21
inactive: [10] 113 % of control | [11] 106 % of control | [12] 106 % of control

CNCC(SC)c1ccc(O)c(O)c1 (stereo not given)
inactive: dose: 50.0 mg/kg/injection, schedule: Q01DX009 (ip), vehicle: saline 103 % of control | [7] 103 % of control | dose: 100.0 mg/kg/injection, schedule: Q04DX003 (ip), vehicle: saline 114 % of control | [8] 121 % of control | dose: 200.0 mg/kg/injection, schedule: Q04DX003 (ip), vehicle: saline 114 % of control

CCCCNC(=S)S
inactive: [13] 95 % of control | [14] 98 % of control | [15] 104 % of control

CC1=NCCc2ccccc21
inactive: dose: 6.25 mg/kg/injection, schedule: Q01DX009 (ip), vehicle: saline 92 % of control | dose: 12.5 mg/kg/injection, schedule: Q01DX009 (ip), vehicle: saline 95 % of control | dose: 25.0 mg/kg/injection, schedule: Q01DX009 (ip), vehicle: saline 90 % of control

COc1ccccc1NC(=O)Nc1ccccc1Cl
inactive: [16] 88 % of control | [4] 89 % of control | [17] 112 % of control | [5] 92 % of control | dose: 400.0 mg/kg/injection, schedule: Q01DX009 (ip), vehicle: saline with Tween-80 92 % of control | [6] 89 % of control

CCSCC1OC(n2cnc3c(N)ncnc32)CC1SCC (stereo not given)
inactive: [1] 104 % of control | [2] 104 % of control | [18] 98 % of control | [3] 111 % of control | [19] 89 % of control | [20] 101 % of control | [21] 92 % of control

COC(=O)c1cc(C)cc(N2c3ccccc3-c3cc(C)ccc3S2(=O)=O)c1C
inactive: [2] 104 % of control | [3] 102 % of control | [20] 96 % of control

CCCCC(CC)COC(OCC(CC)CCCC)C(OCC(CC)CCCC)OCC(CC)CCCC (stereo not given)
inactive: [7] 101 % of control | [4] 98 % of control | [8] 101 % of control | [5] 94 % of control | [9] 113 % of control | [6] 91 % of control

c1ccc2nc3c(nc2c1)[nH]c1ccccc13
inactive: dose: 62.5 mg/kg/injection, schedule: Q01DX Z (ip), vehicle: carboxymethylcellulose (CMC) 94 % of control | dose: 125.0 mg/kg/injection, schedule: Q01DX Z (ip), vehicle: carboxymethylcellulose (CMC) 100 % of control | dose: 250.0 mg/kg/injection, schedule: Q01DX Z (ip), vehicle: carboxymethylcellulose (CMC) 95 % of control | dose: 500.0 mg/kg/injection, schedule: Q01DX Z (ip), vehicle: carboxymethylcellulose (CMC) 91 % of control

Cln1nnc2ccccc21
inactive: dose: 100.0 mg/kg/injection, schedule: Q04DX002 (ip), vehicle: other 91 % of control | dose: 200.0 mg/kg/injection, schedule: Q04DX002 (ip), vehicle: other 106 % of control

COc1ccc(C(c2ccc(OC)cc2)C(c2ccc(OC)cc2)c2ccc(OC)cc2)cc1
inactive: [10] 98 % of control | [11] 106 % of control | [12] 103 % of control

COC(=O)Cc1c(C(=O)OC)c(O)cc(O)c1C(=O)OC
inactive: [1] 100 % of control | [2] 97 % of control | [3] 100 % of control | [20] 100 % of control

CC(C)c1ccc(/C=C(\C(=O)O)c2cccc3ccccc23)cc1
inactive: [22] 101 % of control

O=C1NC(=O)C2C3OC(C(Cl)C3Cl)C12 (stereo not given)
inactive: dose: 12.5 mg/kg/injection, schedule: Q04DX002 (ip), vehicle: Klucel (hydroxypropylcellulose) (HPC) 98 % of control | dose: 25.0 mg/kg/injection, schedule: Q01DX009 (ip), vehicle: Klucel (hydroxypropylcellulose) (HPC) 97 % of control | dose: 25.0 mg/kg/injection, schedule: Q04DX002 (ip), vehicle: Klucel (hydroxypropylcellulose) (HPC) 102 % of control | dose: 50.0 mg/kg/injection, schedule: Q01DX009 (ip), vehicle: Klucel (hydroxypropylcellulose) (HPC) 107 % of control | dose: 50.0 mg/kg/injection, schedule: Q04DX002 (ip), vehicle: Klucel (hydroxypropylcellulose) (HPC) 98 % of control | dose: 75.0 mg/kg/injection, schedule: Q01DX009 (ip), vehicle: Klucel (hydroxypropylcellulose) (HPC) 96 % of control | dose: 75.0 mg/kg/injection, schedule: Q01DX009 (ip), vehicle: carboxymethylcellulose (CMC) 100 % of control

C=C1C=C(C)N(C(=O)c2ccccc2Br)CCN1C(=O)c1ccccc1Br
inactive: [13] 96 % of control | [14] 105 % of control | [15] 100 % of control

C/C(=N\N=C(/C)c1ccc(O)cc1)c1ccc(O)cc1
inactive: dose: 50.0 mg/kg/injection, schedule: Q01DX009 (ip), vehicle: saline with Tween-80 96 % of control | [16] 92 % of control | [17] 89 % of control

Cc1cc(C)nc(CCSS(=O)(=O)O)c1
inactive: [18] 104 % of control | [19] 102 % of control | [21] 98 % of control

CC(=O)OC1([N+](=O)[O-])c2ccccc2C2CC1c1ccccc12 (stereo not given)
inactive: dose: 75.0 mg/kg/injection, schedule: Q04DX003 (ip), vehicle: Klucel (hydroxypropylcellulose) (HPC) 112 % of control | dose: 100.0 mg/kg/injection, schedule: Q01DX001 (ip), vehicle: Klucel (hydroxypropylcellulose) (HPC) 91 % of control | dose: 150.0 mg/kg/injection, schedule: Q04DX003 (ip), vehicle: Klucel (hydroxypropylcellulose) (HPC) 107 % of control | dose: 200.0 mg/kg/injection, schedule: Q01DX001 (ip), vehicle: Klucel (hydroxypropylcellulose) (HPC) 99 % of control | dose: 300.0 mg/kg/injection, schedule: Q04DX003 (ip), vehicle: Klucel (hydroxypropylcellulose) (HPC) 97 % of control | dose: 400.0 mg/kg/injection, schedule: Q01DX001 (ip), vehicle: Klucel (hydroxypropylcellulose) (HPC) 100 % of control

C1=NOC2c3ccc4ccccc4c3CCC12 (stereo not given)
inactive: [22] 95 % of control | dose: 200.0 mg/kg/injection, schedule: Q01DX009 (ip), vehicle: Klucel (hydroxypropylcellulose) (HPC) 93 % of control | dose: 400.0 mg/kg/injection, schedule: Q01DX009 (ip), vehicle: Klucel (hydroxypropylcellulose) (HPC) 93 % of control

CCOP(=O)(/N=C1/C2CCC(C2)C1C)OCC (stereo not given)
inactive: dose: 12.5 mg/kg/injection, schedule: Q04DX003 (ip), vehicle: saline 94 % of control | dose: 25.0 mg/kg/injection, schedule: Q04DX003 (ip), vehicle: saline 105 % of control | dose: 50.0 mg/kg/injection, schedule: Q04DX003 (ip), vehicle: saline 102 % of control

CC(=O)Nc1ccc(S(=O)(=O)Nc2ccc(C(=O)O)cc2)cc1
inactive: [13] 100 % of control | [14] 87 % of control | [15] 92 % of control
